Reference: patent US20240010984A1, “SERUM-FREE MEDIUM FOR DIFFERENTIATION OF A PROGENITOR CELL” (Mosa Meat B.V., priority 2020, published 2024)

How the values were obtained:
[1] = test system: bovine muscle progenitor cells; assay: Serum-free myogenic differentiation with or without Notch pathway inhibition, brightfield microscopy (Example 5, FIG. 3); type: cell-based
Protocol: Myogenic progenitor cells as disclosed in Example 2 were plated in Matrigel-coated (1:200 in PBS) plates at a seeding density of 40 k cells/cm^2 and cultured for 24 h in a serum-free proliferation medium as disclosed in Example 2. Myogenic differentiation was induced by adding an exemplary serum-free differentiation medium (Table 3) in the presence and absence of DAPT (gamma-Secretase inhibitor #ab120633, abcam) at 0 μM (absence of DAPT; control medium), 1 μM, 5 μM and 10 μM. Cells were imaged with brightfield microscopy and the differentiation phenotypes were compared.

[2] = test system: Bovine muscle progenitor cells; assay: Serum-free myogenic differentiation of bovine muscle progenitor cells into myocytes (Example 3, FIG. 1 and 2); type: cell-based, Bos taurus; conditions: cells previously proliferated in serum-free proliferation medium, one inducer per medium (lactate 10 mM, LPA 5 uM, oxytocin 50 nM or glucagon 1 uM), different basal formulations
Protocol: The DMEM/F12 1:1 or 10:1 or 1:0 or alpha-MEM or M199 medium was supplemented with albumin (recombinant human albumin from Richcore) at 0.5 mg/ml, insulin (recombinant human insulin, 10-365 from Peprotech) at 19.4 ug/ml, transferrin (recombinant human transferrin, 10-366 from Peprotech) at 10.7 ug/ml, sodium selenite (S5261 from SigmaAldrich) at 0.014 ug/ml, Ethanolamine from Sigma Aldrich cat nr E9508 at 4 ug/ml, ascorbic acid (L-ascorbic acid 2-phosphate sesquimagnesium salt hydrate, A8960 from SigmaAldrich) at 115.22 ug/ml, EGF (recombinant human EGF, AF-100-15 from Peprotech) at 10 ng/ml and one of the following inducers: lactate (Sodium L-lactate, 71718 from SigmaAldrich) at 10 mM, LPA (Oleoyl-L-α-lysophosphatidic acid sodium salt, L7260 from SigmaAldrich) at 5 uM, oxytocin (06379 from SigmaAldrich) at 50 nM, or glucagon (G2044 from SigmaAldrich) at 1 uM.
Bovine muscle progenitor cells were isolated from a bovine muscle tissue (Bos taurus) and sorted based on their positive expression of CD29 as previously described (Ding et al., Sci. Rep., 17(8): 10808 (2018)). Muscle progenitor cells were propagated in a serum-free proliferation medium for at least 8 population doublings prior to differentiation. […]

| Structure (SMILES) | myogenic differentiation of bovine muscle progenitor cells into myocytes compared to control medium without DAPT ([1]; DAPT 1 uM, 5 uM and 10 uM, serum-free differentiation medium of Table 3 (lactate 10 mM), FIG. 3) | number of cells that fuse into myotubes ([1]; DAPT added during myogenic differentiation) | induction of serum-free myogenic differentiation [2] |
| --- | --- | --- | --- |
| C[C@H](NC(=O)Cc1cc(F)cc(F)c1)C(=O)N[C@H](C(=O)OC(C)(C)C)c1ccccc1 [DAPT] | improved myogenic differentiation | increases the number of cells that fuse into myotubes |  |
| C[C@H](O)C(=O)[O-].[Na+] [lactate, Sodium L-lactate] |  |  | induction of serum-free myogenic differentiation could be achieved |
